Measurements published in patent publication US20230393140A1, “BINDING ASSAYS INVOLVING A PLURALITY OF SYNTHETIC COMPOUNDS, TARGETS, AND COUNTER TARGETS” (SRI International, priority 2020, published 2023).
pKd: −log10 of the molar value. Numbered stars: 1 amine (or outer) side, 2 acyl side, 3 side chain; on linkers, the order of the positions; unused ones are H or OH. Square brackets hold non-standard residues; d marks the D form. Peptide text beside a SMILES is read from it. * marks the point of attachment. 5FAM = O=C1OC2(c3ccc(O)cc3Oc3cc(O)ccc32)c2ccc(C(=O)*)cc21; NHCH2C6H4(4-CH2CONH2) = NC(=O)Cc1ccc(CN*)cc1; X1 = O=C(Cc1ccc(CN[*:1])cc1)[*:2]

How the values were obtained:
[1] = tested on: HepG2 cells (high ASGPR expressing); assay: ASGPR uptake assay, flow cytometry, HepG2; assay type: cell-based, human; settings: for Internalization compared with positive control GalNAc: HepG2, flow cytometry; for Internalization (cell uptake) in HepG2: fluorescein-labeled compounds, flow cytometry, 2 hours
Procedure: The HEK293T (human embryonic kidney cells) and human hepatoma HepG2 cells were grown according to the protocols provided by the American Type Culture Collection (ATCC). When cells reached cell were seeded at ˜1.5×10^5 cells/well in 24-well culture plate for the uptake assay. After at least 16 hours of culture to allow cell attach and equilibrate, the compound treatment was set up for the uptake assay.
The fluorescein-labeled NNPs or fluorescein-labeled N-acetylgalactosamine (GalNAc) recognizing ASGRPR were added to wells at indicated concentrations and incubated for 2 hours. Two plates were prepared for each treatment condition, one serving as 4 degrees C. no internalization control that was kept on ice during incubation, while the second plate was incubated at 37 degrees C. to allow for energy dependent internalization. Following the incubation period, all plates were placed on ice and washed three times with ice-cold PBS/3% BSA/2 mM EDTA and then lifted with trypsin. Cells were transferred to a 96-well round bottom plates in FACS buffer. Cells were then analyzed by flow cytometry using LSR-HJ with HTS sampler (BD Biosciences, San Jose, CA, USA). Data (mean fluorescence intensities) and further analyzed using Flowjo software (BD Biosciences, San Jose, CA, USA). The internalized fraction was expressed as the difference between the corresponding 4 degrees C. and 37 degrees C. MFIs as previously described.

[2] = tested on: ASGPR-mediated uptake in HepG2 cells; assay: Competitive uptake assay with asialofetuin in HepG2; assay type: cell-based, human; settings: test compound 0.3 μM; for Cellular uptake with 60 μM asialofetuin: 60 μM asialofetuin (200-fold excess); for Cellular uptake after pre-incubation with asialofetuin: asialofetuin 20 μM and 60 μM
Procedure: For the competitive uptake assay with the natural ligand of ASGPR (asialofetuin), cells were pre-incubated with 20 μM and 60 μM asialofetuin on ice or at 37 degrees C. for 1.5 hours, followed by the treatment with compounds for additional 2 hours before flow cytometric analysis as described above. The reduction of the uptake under asialofetuin competition was expressed by the percentage against the same treatment condition without asialofetuin.

ASGPR = molecular target: T1, ASGPR (Homo sapiens, UniProt P07306); assay: MST binding affinity of resynthesized NNP hits to ASGPR; settings: read-out: KD of ASGPR hits by MST
T1 construct: purchased R&D Systems, Inc. 4394-AS
T1 sequence (P07306 1-291): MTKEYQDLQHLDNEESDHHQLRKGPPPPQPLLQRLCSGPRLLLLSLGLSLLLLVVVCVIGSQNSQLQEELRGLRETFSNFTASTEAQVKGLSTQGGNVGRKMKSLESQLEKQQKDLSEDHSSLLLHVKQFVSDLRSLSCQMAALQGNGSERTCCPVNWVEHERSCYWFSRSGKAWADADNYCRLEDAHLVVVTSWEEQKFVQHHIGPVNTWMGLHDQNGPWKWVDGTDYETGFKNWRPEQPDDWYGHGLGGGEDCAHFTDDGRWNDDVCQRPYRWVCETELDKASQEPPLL
Procedure: Hit binding affinity to various targets were determined using Microscale Thermophoresis (MST). MST experiments were performed on a Monolith NT.115pico (NanoTemper Technologies GmbH, Munich, Germany). Measurements were performed at room temperature, in triplicate with incubation periods of 15, 30 and 45 minutes. […] Targets were labeled using Nanotemper Monolith 2nd Generation Protein Labeling Kits. RED-MALEIMIDE (Maleimide-647-dye) labeling kit was used for K-Ras and RED-NHS (NHS-647-dye) labeling kit was used for IL-6, IL-6R, TNFα and ASGPR. The buffer for the ASGPR contained 20 mM HEPES pH 7.4, 150 mM NaCl, 10 mM MgCl2, 2 mM CaCl2, 0.05% Pluronic F-127, and 1 mM DTT; for IL-6 contained 20 mM HEPES pH 7.4, 150 mM KCl, 10 mM MgCl2, and 0.1% Pluronic F-127; for the soluble IL-6 receptor 20 mM HEPES pH 7.4, 150 mM NaCl, 10 mM MgCl2, and 0.05% Tween-20; for K-Ras 20 mM HEPES pH 7.4, 150 mM NaCl, 10 mM MgCl2, 0.05% Tween-20 and 1 mM DTT; for TNFα 10 mM HEPES pH 7.4, 150 mM NaCl, 10 mM MgCl2, 0.05% Polysorbate-20. Triplicate data was analyzed using MO.AffinityAnalysis software (NanoTemper Technologies GmbH).

HepG2 cells = assay: Confocal imaging of HepG2 cell uptake; assay type: cell-based, human
Procedure: More particularly, FIG. 11B illustrates cell uptake of GalNAc (positive control), two NNP hits (ASGPR-9-4 and ASGPR-9-6) and a non-hit NNP (KRAS-1-14, negative control) in HepG2 (high ASGPR expressing) verses HEK293 (low ASGPR expressing) cells lines. FIG. 11C illustrates competition uptake assay of GalNAc and two NNP hits (ASGPR-9-4 and ASGPR-9-6) in HepG2 cells after preincubation with different concentrations of asialofetuin (a naturally occurring serum protein ASGPR ligand). Decrease in cell uptake with increasing concentrations of asialofetuin indicates blocking of ASGPR-mediated uptake. FIG. 11D illustrates example confocal images 1113, 1115, 1117, 1119 of HepG2 cell uptake (scale: x20 for the images 1113, 1115, 1117 and x40 for the image 1119). FL=fluorescein label; Cell nucleus staining with DAPI (blue). No uptake with the blank sample (DMSO) is seen at 4 degrees C.

Compound	Internalization compared with positive control GalNAc [1]	Internalization (cell uptake) in HepG2 [1]	Cellular uptake with 60 μM asialofetuin [2]	Cellular uptake after pre-incubation with asialofetuin [2]	pKd (ASGPR)	HepG2 cell uptake, confocal images, 4 degrees C. (HepG2 cells)	HepG2 cell uptake, confocal images, 37 degrees C. (HepG2 cells)
CC(C)C[C@H](NC(=O)CNC(=O)[C@@H](Cc1c[nH]cn1)NC(=O)[C@@H](CCCNC(=N)N)NC(=O)[C@H]1CCCN1C(=O)Cc1ccc(CNC(=O)[C@H](Cc2ccccc2)NC(=O)[C@@H](CO)NC(=O)[C@@H](CCCNC(=N)N)NC(=O)[C@H]2CCCN2C(=O)CNC(=O)Cc2ccc(CNC(=O)[C@H](CC(C)C)NC(=O)[C@@H](CCCNC(=N)N)NC(=O)[C@@H](CCCCN)NC(=O)[C@@H](CCC(=O)O)NC(=O)[C@@H](Cc3ccccc3)NC(=O)Cc3ccc(CNC(=O)[C@H](Cc4ccccc4)NC(=O)[C@@H](CO)NC(=O)[C@@H](CCC(=O)O)NC(=O)[C@H]4CCCN4C(=O)[C@@H](CC(C)C)NC(=O)c4ccc5c(c4)C(=O)OC54c5ccc(O)cc5Oc5cc(O)ccc54)cc3)cc2)cc1)C(=O)NCc1ccc(CC(=O)N[C@H](CCCNC(=N)N)C(=O)N[C@H](Cc2ccccc2)C(=O)N2CCC[C@@H]2C(=O)N[C@@H](C(=O)NCC(=O)NCc2ccc(CC(=O)N[C@H](CC(C)C)C(=O)N3CCC[C@@H]3C(=O)N[C@H](CCCNC(=N)N)C(=O)N[C@@H](C(=O)NCC(=O)NCc3ccc(CC(N)=O)cc3)[C@H](C)O)cc2)C(C)C)cc1 [ASGPR-9-4] (5FAM-[dL][dP][dE][dS]F[X1][dF][dE][dK][dR]L[X1]G[dP][dR][dS]F[X1][dP][dR][dH]GL[X1][dR][dF][dP][dV]G[X1][dL][dP][dR][dT]G-{NHCH2C6H4(4-CH2CONH2)})	significantly higher than uptake of the positive control GalNAc	significantly higher in HepG2 cells compared to in HEK293 cells	mostly abolished	decreased with increasing concentrations of asialofetuin	6.64		
CC(C)C[C@H](NC(=O)[C@@H](CCCNC(=N)N)NC(=O)[C@@H](CCCCN)NC(=O)[C@@H](CCC(=O)O)NC(=O)[C@@H](Cc1ccccc1)NC(=O)Cc1ccc(CNC(=O)[C@H](Cc2ccccc2)NC(=O)[C@@H](CO)NC(=O)[C@@H](CCC(=O)O)NC(=O)[C@H]2CCCN2C(=O)[C@@H](CC(C)C)NC(=O)c2ccc3c(c2)C(=O)OC32c3ccc(O)cc3Oc3cc(O)ccc32)cc1)C(=O)NCc1ccc(CC(=O)NCC(=O)N2CCC[C@@H]2C(=O)N[C@H](CCCNC(=N)N)C(=O)N[C@H](CO)C(=O)N[C@@H](Cc2ccccc2)C(=O)NCc2ccc(CC(=O)N[C@H](Cc3ccc(O)cc3)C(=O)N[C@@H](C(=O)N3CCC[C@@H]3C(=O)N[C@H](CCCNC(=N)N)C(=O)N[C@@H](C)C(=O)NCc3ccc(CC(=O)N[C@H](CCCNC(=N)N)C(=O)N[C@H](Cc4ccccc4)C(=O)N4CCC[C@@H]4C(=O)N[C@@H](C(=O)NCC(=O)NCc4ccc(CC(=O)N[C@H](CC(C)C)C(=O)N5CCC[C@@H]5C(=O)N[C@H](CCCNC(=N)N)C(=O)N[C@@H](C(=O)NCC(=O)NCc5ccc(CC(N)=O)cc5)[C@H](C)O)cc4)C(C)C)cc3)[C@H](C)O)cc2)cc1 [ASGPR-9-6] (5FAM-[dL][dP][dE][dS]F[X1][dF][dE][dK][dR]L[X1]G[dP][dR][dS]F[X1][dY][dT][dP][dR]A[X1][dR][dF][dP][dV]G[X1][dL][dP][dR][dT]G-{NHCH2C6H4(4-CH2CONH2)})	significantly higher than uptake of the positive control GalNAc	significantly higher in HepG2 cells compared to in HEK293 cells	mostly abolished	decreased with increasing concentrations of asialofetuin	7.47	not at 4 °C	intracellular uptake is observed
THA-(GalNAc)3-(OH)9-1,3-propanediamine-fluorescein [reference compound]			mostly abolished	decreased with increasing concentrations of asialofetuin		no uptake	is seen at 37 °C
